The values below come from patent publication US9580449B2, “Compositions and methods for the production of pyrimidine and pyridine compounds with BTK inhibitory activity” (Merck Patent GmbH, priority 2011, dated 2017).

In general, pIC50 refers to the IC50 on a negative log10 scale, so that one unit is a factor of ten.

This assay addresses full-length human BTK (Homo sapiens (Human), UniProt Q06187). In words: BTK IC50 enzyme assay (microfluidic off-chip mobility shift kinase assay). As to conditions: incubated for 90 min. at 27 C; read-out: Time Dependent BTK Enzyme Assay IC50. In kind it is biochemical. The method in brief:
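Off-chip microfluidic mobility shift assay on full-length human BTK; substrate-to-product conversion measured by charge/mass separation of phosphorylated peptide after reaction stop.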

pIC50: −log10 of the molar value. A value given as a limit tells only on which side of the number the result lay.

Sequence of full-length human BTK (Q06187 whole entry): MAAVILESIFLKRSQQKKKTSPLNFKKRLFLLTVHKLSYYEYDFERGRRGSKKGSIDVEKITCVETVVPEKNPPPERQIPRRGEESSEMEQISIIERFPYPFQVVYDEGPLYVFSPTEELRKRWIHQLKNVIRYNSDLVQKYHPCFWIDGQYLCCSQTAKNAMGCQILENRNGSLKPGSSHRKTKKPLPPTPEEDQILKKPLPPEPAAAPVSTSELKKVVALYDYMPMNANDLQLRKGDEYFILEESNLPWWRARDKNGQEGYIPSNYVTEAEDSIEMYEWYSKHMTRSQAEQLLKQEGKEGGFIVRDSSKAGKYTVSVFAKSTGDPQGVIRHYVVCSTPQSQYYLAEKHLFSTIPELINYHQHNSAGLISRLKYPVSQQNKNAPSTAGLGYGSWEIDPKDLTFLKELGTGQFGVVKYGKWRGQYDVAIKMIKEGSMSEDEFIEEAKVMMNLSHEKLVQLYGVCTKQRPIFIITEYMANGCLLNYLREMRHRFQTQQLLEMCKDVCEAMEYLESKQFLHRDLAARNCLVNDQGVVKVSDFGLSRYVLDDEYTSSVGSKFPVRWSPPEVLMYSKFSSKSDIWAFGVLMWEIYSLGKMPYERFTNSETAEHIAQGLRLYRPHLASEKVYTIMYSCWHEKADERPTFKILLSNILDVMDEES

As for `C=CC(=O)Nc1ccc(Oc2ncnc(N)c2-c2ccc(Oc3ccccc3)cc2)cc1` [A280, N-(4-((6-amino-5-(4-phenoxyphenyl)pyrimidin-4-yl)oxy)phenyl)acrylamide], the pIC50 is over 7.00.

For the molecule `C=C(C)C(=O)Nc1cccc(-c2cnccc2Oc2ccc(Oc3ccccc3)cc2)c1` [A322, N-(3-(4-(4-phenoxyphenoxy)pyridin-3-yl)phenyl)methacrylamide], the negative logarithm of the IC50 (pIC50) was under 6.00.

With `C=CC(=O)N1CCC(CNc2ncnc(N)c2-c2ccc(F)cc2)CC1` [A77, 1-(4-(((6-amino-5-(4-fluorophenyl)pyrimidin-4-yl)amino)methyl)piperidin-1-yl)prop-2-en-1-one], the negative logarithm of the IC50 (pIC50) was under 6.00.

Take `C/C=C\C(=O)N1CCC(COc2ncnc(N)c2-c2ccc(Oc3ccccc3)cc2)CC1` [A43, (Z)-1-(4-(((6-amino-5-(4-phenoxyphenyl)pyrimidin-4-yl)oxy)methyl)piperidin-1-yl)but-2-en-1-one]: the pIC50 is over 6.00.

Consider `CN(C)C/C=C/C(=O)N[C@H]1C[C@@H](Nc2ncnc(N)c2-c2ccc(Oc3ccccc3)cc2)C1` [A224, (E)-N-(1,3-cis-3-((6-amino-5-(4-phenoxyphenyl)pyrimidin-4-yl)amino)cyclobutyl)-4-(dimethylamino)but-2-enamide], for which the negative-log IC50 (pIC50) is over 7.00.

In the case of `C=CC(=O)Nc1cccc(Oc2nc(N)ncc2-c2ccc(Oc3ccccc3)cc2)c1` [A271, N-(3-((2-amino-5-(4-phenoxyphenyl)pyrimidin-4-yl)oxy)phenyl)acrylamide], the pIC50 is over 7.00.

`Nc1ncnc(Oc2cccc(N3CC=CC3=O)c2)c1-c1ccc(Oc2ccccc2)cc1` [A40, 1-(3-((6-amino-5-(4-phenoxyphenyl)pyrimidin-4-yl)oxy)phenyl)-1H-pyrrol-2(5H)-one]: the pIC50 was over 6.00.

Consider `CC#CC(=O)Nc1cccc(-c2cnccc2Oc2ccc(Oc3ccccc3)cc2)c1` [A296, N-(3-(4-(4-phenoxyphenoxy)pyridin-3-yl)phenyl)but-2-ynamide], for which the negative-log IC50 (pIC50) is over 6.00.

For the molecule `C=CC(=O)Nc1cccc(Oc2ncnc(N)c2-c2ccc(Oc3ccc(F)cc3)nc2)c1` [A166, N-(3-((6-amino-5-(6-(4-fluorophenoxy)pyridin-3-yl)pyrimidin-4-yl)oxy)phenyl)acrylamide], the negative logarithm of the IC50 (pIC50) was over 6.00.

Take `CC1=CC(C)=[N+]2C1=Cc1ccc(CCC(=O)NCCN3CCN(C/C=C/C(=O)Nc4cccc(Oc5ncnc(N)c5-c5ccc(Oc6ccccc6)cc5)c4)CC3)n1[B-]2(F)F` [A35, (E)-7-(3-((2-(4-(4-((3-((6-amino-5-(4-phenoxyphenyl)pyrimidin-4-yl)oxy)phenyl)amino)-4-oxobut-2-en-1-yl)piperazin-1-yl)ethyl)amino)-3-oxopropyl)-5,5-difluoro-1,3-dimethyl-5H-dipyrrolo[1,2-c:2′,1′-f][1,3,2]diazaborinin-4-ium-5-uide]: the pIC50 was […].

Consider `Nc1ncnc(NCC2(F)CCN(C(=O)CCN3CCCCC3)CC2)c1-c1ccc(Oc2ccccc2)cc1` [A235, 1-(4-(((6-amino-5-(4-phenoxyphenyl)pyrimidin-4-yl)amino)methyl)-4-fluoropiperidin-1-yl)-3-(piperidin-1-yl)propan-1-one], for which the pIC50 is under 6.00.

`C=CC(=O)N1CC=C(c2c(N)ncnc2Oc2ccc(Oc3ccccc3)cc2)CC1` [A263, 1-(4-(4-amino-6-(4-phenoxyphenoxy)pyrimidin-5-yl)-5,6-dihydropyridin-1(2H)-yl)prop-2-en-1-one]: the pIC50 was over 6.00.

For `C=CC(=O)N1CCC(CNc2ncnc(N)c2-c2ccc(Oc3ccc(O)cc3)cc2)CC1` [A94, 1-(4-(((6-amino-5-(4-(4-hydroxyphenoxy)phenyl)pyrimidin-4-yl)amino)methyl)piperidin-1-yl)prop-2-en-1-one], the negative logarithm of the IC50 (pIC50) was under 6.00.

For the molecule `C=CC(=O)N1CCC2(CCN(c3ncnc(N)c3-c3ccc(Oc4ccccc4)cc3)C2)C1` (stereo not shown) [A93, 1-(7-(6-amino-5-(4-phenoxyphenyl)pyrimidin-4-yl)-2,7-diazaspiro[4.4]nonan-2-yl)prop-2-en-1-one], the pIC50 is over 6.00.

With `C=CC(=O)Nc1cccc(Oc2ncnc(N)c2-c2ccc(NC(=O)c3ccccc3)cc2)c1` [A352, N-{4-[4-(3-Acryloylamino-phenoxy)-6-amino-pyrimidin-5-yl]-phenyl}-benzamide], the pIC50 is over 7.00.

Take `C=CC(=O)Nc1cccc(Oc2ncnc(N)c2-c2cnn(Cc3cccc(C#N)c3)c2)c1` [A203, N-(3-((6-amino-5-(1-(3-cyanobenzyl)-1H-pyrazol-4-yl)pyrimidin-4-yl)oxy)phenyl)acrylamide]: the pIC50 is over 7.00.

Regarding `C=CC(=O)N1CCO[C@H](COc2ncnc(N)c2-c2ccc(Oc3ccccc3)cc2)C1` [A65, (S)-1-(2-(((6-amino-5-(4-phenoxyphenyl)pyrimidin-4-yl)oxy)methyl)morpholino)prop-2-en-1-one], the pIC50 is over 7.00.

As for `C=CC(=O)Nc1cccc(Oc2ncnc(N)c2-c2ccc(F)c(OC)c2)c1` [A277, N-(3-((6-amino-5-(4-fluoro-3-methoxyphenyl)pyrimidin-4-yl)oxy)phenyl)acrylamide], the negative logarithm of the IC50 (pIC50) is over 7.00.

On to `C=CC(=O)NC1(CNc2ncnc(N)c2-c2ccc(Oc3ccccc3)cc2)CCCC1` [A20, N-(1-(((6-amino-5-(4-phenoxyphenyl)pyrimidin-4-yl)amino)methyl)cyclopentyl)acrylamide], for which the pIC50 is under 6.00.

Take `C=CC(=O)N1CC[C@@H](CNc2ncnc(N)c2-c2ccc(Oc3cccc(C(F)(F)F)c3)cc2)[C@H](O)C1` [A170, 1-((3S,4S)-4-(((6-amino-5-(4-(3-(trifluoromethyl)phenoxy)phenyl)pyrimidin-4-yl)amino)methyl)-3-hydroxypiperidin-1-yl)prop-2-en-1-one]: the negative logarithm of the IC50 (pIC50) was over 7.00.

Consider `C=CC(=O)Nc1cccc(Oc2ncnc(N)c2-c2cnn(Cc3ccc(C#N)cc3)c2)c1` [A69, N-(3-((6-amino-5-(1-(4-cyanobenzyl)-1H-pyrazol-4-yl)pyrimidin-4-yl)oxy)phenyl)acrylamide], for which the pIC50 is over 6.00.

`C=CC(=O)N1CC(CCNc2ncnc(N)c2-c2ccc(Oc3ccccc3)cc2)C1` [A103, 1-(3-(2-((6-amino-5-(4-phenoxyphenyl)pyrimidin-4-yl)amino)ethyl)azetidin-1-yl)prop-2-en-1-one]: the pIC50 is over 6.00.

As for `CN(C)C/C=C/C(=O)N1CC2(CC(Oc3ncnc(N)c3Cl)C2)C1` [A102, (E)-1-(6-((6-amino-5-chloropyrimidin-4-yl)oxy)-2-azaspiro[3.3]heptan-2-yl)-4-(dimethylamino)but-2-en-1-one], the pIC50 was under 6.00.

In the case of `C=CC(=O)NCc1cccc(-c2cnccc2Oc2ccc(Oc3ccccc3)cc2)c1` [A302, N-(3-(4-(4-phenoxyphenoxy)pyridin-3-yl)benzyl)acrylamide], the pIC50 was under 6.00.

Turning to `C=CC(=O)N1CCCC(Nc2nc(N)ncc2-c2ccc(Oc3ccccc3)cc2)C1` (stereo not shown) [A150, 1-(3-((2-amino-5-(4-phenoxyphenyl)pyrimidin-4-yl)amino)piperidin-1-yl)prop-2-en-1-one], the negative logarithm of the IC50 (pIC50) is over 6.00.

With `C=CC(=O)N1CCC(CNc2nc(C)nc(N)c2-c2ccc(Oc3ccccc3)cc2)CC1` [A36, 1-(4-(((6-amino-2-methyl-5-(4-phenoxyphenyl)pyrimidin-4-yl)amino)methyl)piperidin-1-yl)prop-2-en-1-one], the negative-log IC50 (pIC50) was under 6.00.

For `C=CC(=O)NCCNc1ncnc(N)c1-c1ccc(Oc2ccccc2)cc1` [A18, N-(2-((6-amino-5-(4-phenoxyphenyl)pyrimidin-4-yl)amino)ethyl)acrylamide], the pIC50 is over 6.00.

On to `C=CC(=O)N1CC(Nc2ncnc(N)c2-c2ccc(Oc3ccccc3)cc2)C1` [A185, 1-(3-((6-amino-5-(4-phenoxyphenyl)pyrimidin-4-yl)amino)azetidin-1-yl)prop-2-en-1-one], for which the pIC50 is over 7.00.

Take `C=CC(=O)N1CCC(CNc2ncnc(N)c2-c2ccc(OC(F)(F)F)cc2)CC1` [A78, 1-(4-(((6-amino-5-(4-(trifluoromethoxy)phenyl)pyrimidin-4-yl)amino)methyl)piperidin-1-yl)prop-2-en-1-one]: the pIC50 is under 6.00.

As to `Nc1ncnc(Oc2cccc(NC(=O)CCl)c2)c1-c1ccc(OCc2cccc(F)c2)cc1` [A345, N-(3-{6-Amino-5-[4-(3-fluoro-benzyloxy)-phenyl]-pyrimidin-4-yloxy}-phenyl)-2-chloro-acetamide], the pIC50 is over 7.00.

For the molecule `C=CC(=O)N1CCC(CNc2ncnc(N)c2-c2ccc(OC3CCCCC3)cc2)CC1` [A99, 1-(4-(((6-amino-5-(4-(cyclohexyloxy)phenyl)pyrimidin-4-yl)amino)methyl)piperidin-1-yl)prop-2-en-1-one], the pIC50 was over 6.00.

Consider `C=CC(=O)NC1CCCN(c2ncnc(N)c2-c2ccc(Oc3ccccc3)cc2)C1` (stereo not shown) [A298, N-(1-(6-amino-5-(4-phenoxyphenyl)pyrimidin-4-yl)piperidin-3-yl)acrylamide], for which the negative logarithm of the IC50 (pIC50) was under 6.00.

Turning to `C=CC(=O)N1C2CCC1CC(CNc1ncnc(N)c1-c1ccc(Oc3ccc(C#N)cc3)cc1)C2` (stereo not shown) [A208, 4-(4-(4-(((8-acryloyl-8-azabicyclo[3.2.1]octan-3-yl)methyl)amino)-6-aminopyrimidin-5-yl)phenoxy)benzonitrile], the pIC50 was under 6.00.

As to `CCC(=O)Nc1cccc(-c2cnccc2Oc2ccc(Oc3ccccc3)cc2)c1` [A319, N-(3-(4-(4-phenoxyphenoxy)pyridin-3-yl)phenyl)propionamide], the pIC50 is under 6.00.

For `Nc1ncnc(NCC2CCN(C(=O)C3=CCC3)CC2)c1-c1ccc(Oc2ccccc2)cc1` [A42, (4-(((6-amino-5-(4-phenoxyphenyl)pyrimidin-4-yl)amino)methyl)piperidin-1-yl)(cyclobut-1-en-1-yl)methanone], the pIC50 is over 6.00.

Take `Nc1cccc(-c2c(Oc3ccc(Oc4ccccc4)cc3)ccnc2N)c1` [A300, 3-(3-aminophenyl)-4-(4-phenoxyphenoxy)pyridin-2-amine]: the pIC50 was over 6.00.

As for `C=CC(=O)N[C@H]1C[C@H](O)C[C@@H](Nc2ncnc(N)c2-c2ccc(Oc3ccccc3)cc2)C1` (racemic) [A188, N-((1R,3S,5R)-3-((6-amino-5-(4-phenoxyphenyl)pyrimidin-4-yl)amino)-5-hydroxycyclohexyl)acrylamide], the pIC50 was over 6.00.
